Several values for one entry are separate records, joined by “and”; a condition that tells them apart may be missing. Equal values may be shown once.
What was measured:
MDA-MB-231 cells [1] = test: Cell proliferation assay (trypan blue); type: cell-based, human; conditions: 30 μM, 48 h
Procedure: MDA-MB-231 cells harvested from exponential growth phase were seeded at a density of 1 × 10^4/well in a 24-well culture plate. After 24 h, the cells were treated with varying concentrations of andrographolide (15, 30, 45 and 60 μM) or DMSO (0.1 %, vehicle control) for 12, 24, 36 and 48 h. After treatment, cells were harvested by trypsinization, stained with 0.4 % trypan blue and counted in a hemocytometer. Cell proliferation index PI, was calculated as PI = Ct/C0; where Ct = cell count at time t and C0 = cell count at the time of treatment.

MDA-MB-231 cells [2] = test: Cell cycle analysis by flow cytometry (PI); type: cell-based, human; conditions: 30 μM
Procedure: In order to study the stages of the cell cycle affected by andrographolide, flow cytometry analysis of cell cycle was carried out. Cells were seeded in a 6-well tissue culture plate at an initial density of 2.5 × 10^5 cells per well in the presence of andrographolide (30 μM) or vehicle (DMSO) for 24, 36 and 48 h. The treatment medium and the attached cells were collected after trypsinisation and centrifugation at 1000 × g. Cells were then fixed with 70 % ethanol at 4 °C overnight. The resulted pellets were resuspended in PBS having 100 μg/ml RNAse A (Sigma-Aldrich, USA) and 50 μg/ml PI, and then kept in dark at 25 °C for 30 min. Cell cycle phase distribution were monitored on the BD FACSVerse™ (Becton Dickinson, USA) and analyzed by using FACSuite™ software. A total of 10,000 events were recorded.

MCF-7 cells = test: Annexin V-FITC/PI flow cytometry (apoptosis); type: cell-based, human; conditions: MCF-7, IC50 concentration, 48 h
Procedure: (§1) In order to examine phosphatidyl serine externalization from inner to the outer cell membrane, a characteristic feature of apoptotic cell death and to quantify the percentage of apoptotic cell death, cultured MDA-MB-231 cells (1 × 10^6) were treated with 50 % inhibitory concentration (30 μM) of andrographolide for 24 h, 36 h and 48 h. Cells were resuspended in 1X binding buffer, labelled with fluorescein isothiocyanate (FITC)-conjugated Annexin V (200 μg/ml) and PI (30 μg/ml), incubated for 15 min at room temperature in the dark and analyzed by flow cytometry using BD FACSVerse™ (Becton Dickinson, USA). Data were analyzed using FACSuite™ software. For each set, total of 10,000 events were recorded. Similar experiment was also performed using MCF-7 cells treated with andrographolide for 48 h.

MDA-MB-231 cells [3] = test: Annexin V-FITC/PI flow cytometry (apoptosis); type: cell-based, human; conditions: 30 μM
Procedure: as §1

Apaf-1 = test: Western blot, protein expression in MDA-MB-231 cells; type: cell-based, human; conditions: 30 μM, 48 h
Procedure: (§2) Cells from control regime and andrographolide treatment (30 μM, 48 h) were used for Western blot. After centrifugation, cell pellets were lysed in RIPA buffer containing protease and phosphatase inhibitors (Roche, Germany). Each cell lysate was used for protein assay with Bio-Rad protein assay kit (Bio-Rad, USA). A protein sample of 50 μg was electrophoresed in a 12 % SDS-PAGE. Proteins were electro-transferred from the gel onto a nitrocellulose membrane (Amersham Biosciences, UK). After incubating with blocking buffer containing 5 % nonfat milk for 1 h, the membranes were probed with the primary antibody specific for Bcl-xL (1:750 dilution), Bcl-2 (1:1000), Bax (1:1000), cytochrome c (1:800) and Apaf-1 (1:500) at 4 °C. Membrane was then washed thrice with TBST (Tris buffered saline having 0.1 % Tween-20, pH 7.5), exposed to horseradish peroxidase conjugated secondary antibody (1:2500) and was then kept at 25 °C for 1 h. The membrane was then finally washed thrice with TBST. The protein bands were visualized by incubating the membrane with diaminobenzidine/hydrogen peroxide (Sigma-Aldrich) for color reaction. β-Actin and COX IV were also detected as loading controls.

Bax = test: as above; type: cell-based, human; conditions: 30 μM, 48 h
Procedure: as §2

Bcl-2 = test: as above; type: cell-based, human; conditions: 30 μM, 48 h
Procedure: as §2

Bcl-xL = test: as above; type: cell-based, human; conditions: 30 μM, 48 h
Procedure: as §2

MDA-MB-231 cells [4] = test: Mitochondrial membrane potential (Rhodamine 123); type: cell-based, human; conditions: 15-60 μM, 24 and 48 h
Procedure: The loss of mitochondrial membrane potential (∆ψm) (MMP) is a primary event leading to phosphatidyl serine externalization, which corresponds with the activation of caspase. MMP was quantified by the incorporation of a fluorescent dye Rhodamine 123 [25]. Cells (1 × 10^4 per well) were incubated with different concentrations (15, 30, 45 or 60 μM) of andrographolide in the absence or presence of NAC for 24 and 48 h. Positive control was obtained with a mitochondrial uncoupling agent, carbonyl cyanide m-chloro-phenylhydrazone (CCCP; 20 μM) for 30 min. The treated cells were washed twice with chilled PBS before incubation with Rhodamine 123 (5 μg/ml) and kept at 37 °C for 15 min. The fluorescence intensity was detected using an emission filter of 535 nm. Same experiment was also performed using MCF-7 cells.

caspase-9 = test: Caspase activity assay in MCF-7 cells; type: cell-based, human; conditions: MCF-7, 0-80 μM, 24 h
Procedure: MDA-MB-231 cells (1 × 10^5 cells per ml) were incubated with different concentrations of andrographolide (0, 15, 30, 45 and 60 μM) for 24 h and then centrifuged to detect caspase-3 and caspase-9 activation using caspase fluoremetric protease assay kit following manufacturer’s instructions. Briefly, cells were lysed in RIPA buffer supplemented with protease inhibitor cocktail and 10 μl lysate were diluted with 10 μl substrate buffer (1:1) containing 100 μM each of fluorogenic substrate, DEVD-AFC and LEHD-AFC for caspase-3 and caspase-9 respectively, and was then incubated for 90 min at 37 °C. Reactions were stopped using 0.2 mM sodium phosphate buffer (pH 7.5) and fluorescence was quantified by a spectrofluorometer (excitation, 405 nm; emission, 505 nm). Experiment was also performed using MCF-7 cells.

male mice = tested on: male mice; design: method as in PMID 2228074; conditions: intraperitoneal route; cited from earlier work
platelets = tested on: platelets; design: method as in PMID 21822619; dose or concentration left out as unconfirmed; conditions: cited from earlier work

C=C1CC[C@@H]2[C@](C)(CO)[C@H](O)CC[C@@]2(C)[C@@H]1C/C=C1/C(=O)OC[C@H]1O [andrographolide]
cell death (MDA-MB-231 cells [1]): ~ 50% | decrease in the cell number at the G1/G0 phase over the control (MDA-MB-231 cells [2]; 24 h): 24.75 ± 0.5% | increase in S population over the untreated control (MDA-MB-231 cells [2]; 24 h): 9.91 ± 0.3% | decrease in the cell number at the G1/G0 phase over the control (MDA-MB-231 cells [2]; 36 h): 28.86 ± 0.7% | increase in S population over the untreated control (MDA-MB-231 cells [2]; 36 h): 14.21 ± 0.2% | decrease in the cell number at the G1/G0 phase over the control (MDA-MB-231 cells [2]; 48 h): 33.53 ± 1.1% | percentage of apoptotic cells (MCF-7 cells): 41.17% | early apoptotic cells (annexin V+ and PI-) (MDA-MB-231 cells [3]; 24 h): 16.76 ± 0.51% | late apoptotic cells (annexin V+ and PI+) (MDA-MB-231 cells [3]; 24 h): 32.2 ± 2.2% and 32% | early apoptotic cells (annexin V+ and PI-) (MDA-MB-231 cells [3]; 36 h): 12.23 ± 0.29% | late apoptotic cells (annexin V+ and PI+) (MDA-MB-231 cells [3]; 36 h): 60.06 ± 0.6% | early apoptotic cells (annexin V+ and PI-) (MDA-MB-231 cells [3]; 48 h): 5.89 ± 0.67% | cell population in necrotic phase (MDA-MB-231 cells [3]; all the treated conditions (24, 36, 48 h)): < 1% | Apaf-1 expression, increase (Apaf-1): 1.49 ± 0.17 fold | Bax expression, up-regulated (Bax): 2.39 ± 0.45 fold | Bcl-2 expression, down regulated (Bcl-2): 1.96 ± 0.14 fold | Bcl-xL expression, down-regulated compared to control (Bcl-xL): 1.47 ± 0.06 fold | MMP level (MDA-MB-231 cells [4]): significant (P < 0.01) drop of MMP level | caspase-9 (initiator caspase) activation (caspase-9): activation in a dose-dependent manner | LD50 (male mice): 11460 mg/kg | cytotoxic effect on platelets (platelets): no cytotoxic effect

Reference: article PMC4833932, “Cytotoxicity and cell cycle arrest induced by andrographolide lead to programmed cell death of MDA-MB-231 breast cancer cell line” (Journal of Biomedical Science, 2016)
